Data: ChEMBL document CHEMBL4339221, “Investigating the Anticancer Activity of Isatin/Dihydropyrazole Hybrids” (ACS Med Chem Lett, 2019)

What was measured:
[1] = Antiproliferative activity against human NHFB cells assessed as reduction in cell growth incubated for 72 hrs by MTT assay; type: cell-based
[2] = tested on: BXPC-3; experiment: Antiproliferative activity against human BxPC3 cells assessed as cell growth at 10 uM incubated for 72 hrs by MTT assay relative to untreated control; type: functional; conditions: BXPC-3, 72 h, read-out: Activity
[3] = tested on: SK-OV-3; experiment: Antiproliferative activity against human SKOV3 cells assessed as cell growth at 10 uM incubated for 72 hrs by MTT assay relative to untreated control; type: functional; conditions: SK-OV-3, 72 h, read-out: Activity
[4] = Antiproliferative activity against human IGR-39 cells assessed as reduction in cell growth incubated for 72 hrs by MTT assay; type: functional, cell-based; conditions: IGR-39, 72 h
[5] = tested on: MCF7; experiment: Antiproliferative activity against human MCF7 cells assessed as reduction in cell growth incubated for 72 hrs by MTT assay; type: functional, cell-based; conditions: MCF7, 72 h
[6] = Induction of necrosis in human IGR-39 cells at 0.5 times antiproliferative EC50 incubated for 72 hrs by Hoechst 33342 and propidium iodide staining based inverted fluorescent microscopy relative to untreated control; type: functional
[7] = tested on: NCI-H1299; experiment: Antiproliferative activity against human NCI-H1299 cells assessed as cell growth at 10 uM incubated for 72 hrs by MTT assay relative to untreated control; type: functional; conditions: NCI-H1299, 72 h, read-out: Activity
[8] = Induction of apoptosis in human IGR-39 cells at 0.5 times antiproliferative EC50 incubated for 72 hrs by Hoechst 33342 and propidium iodide staining based inverted fluorescent microscopy relative to untreated control; type: functional
[9] = Antiproliferative activity against human IGR-39 cells assessed as cell growth at 10 uM incubated for 72 hrs by MTT assay relative to untreated control; type: functional; conditions: IGR-39, 72 h, read-out: Activity
[10] = tested on: MCF7; experiment: Antiproliferative activity against human MCF7 cells assessed as cell growth at 10 uM incubated for 72 hrs by MTT assay relative to untreated control; type: functional; conditions: MCF7, 72 h, read-out: Activity
[11] = tested on: U-87 MG; experiment: Induction of apoptosis in human U87 cells at 0.5 times antiproliferative EC50 incubated for 72 hrs by Hoechst 33342 and propidium iodide staining based inverted fluorescent microscopy relative to untreated control; type: functional, U-87MG ATCC
[12] = tested on: U-87 MG; experiment: Antiproliferative activity against human U87 cells assessed as reduction in cell growth incubated for 72 hrs by MTT assay; type: functional, cell-based, U-87MG ATCC
[13] = tested on: U-87 MG; experiment: Antiproliferative activity against human U87 cells assessed as cell growth at 10 uM incubated for 72 hrs by MTT assay relative to untreated control; type: functional, U-87MG ATCC; conditions: read-out: Activity
[14] = tested on: U-87 MG; experiment: Induction of necrosis in human U87 cells at 0.5 times antiproliferative EC50 incubated for 72 hrs by Hoechst 33342 and propidium iodide staining based inverted fluorescent microscopy relative to untreated control; type: functional, U-87MG ATCC
[15] = tested on: A549; experiment: Antiproliferative activity against human A549 cells assessed as cell growth at 10 uM incubated for 72 hrs by MTT assay relative to untreated control; type: functional; conditions: A549, 72 h, read-out: Activity
[16] = tested on: BXPC-3; experiment: Antiproliferative activity against human BxPC3 cells assessed as reduction in cell growth incubated for 72 hrs by MTT assay; type: functional, cell-based; conditions: BXPC-3, 72 h
[17] = tested on: A549; experiment: Induction of apoptosis in human A549 cells at 0.5 times antiproliferative EC50 incubated for 72 hrs by Hoechst 33342 and propidium iodide staining based inverted fluorescent microscopy relative to untreated control; type: functional
[18] = tested on: A549; experiment: Antiproliferative activity against human A549 cells assessed as reduction in cell growth incubated for 72 hrs by MTT assay; type: functional, cell-based; conditions: A549, 72 h
[19] = tested on: MDA-MB-231; experiment: Antiproliferative activity against human MDA-MB-231 cells assessed as cell growth at 10 uM incubated for 72 hrs by MTT assay relative to untreated control; type: functional; conditions: MDA-MB-231, 72 h, read-out: Activity
[20] = Antiproliferative activity against human NHFB cells assessed as cell growth at 10 uM incubated for 72 hrs by MTT assay relative to untreated control; type: cell-based; conditions: read-out: Activity
[21] = tested on: BT-474; experiment: Antiproliferative activity against human BT474 cells assessed as cell growth at 10 uM incubated for 72 hrs by MTT assay relative to untreated control; type: functional; conditions: BT-474, 72 h, read-out: Activity
[22] = tested on: A549; experiment: Induction of necrosis in human A549 cells at 0.5 times antiproliferative EC50 incubated for 72 hrs by Hoechst 33342 and propidium iodide staining based inverted fluorescent microscopy relative to untreated control; type: functional
[23] = tested on: NCI-H1299; experiment: Antiproliferative activity against human NCI-H1299 cells assessed as reduction in cell growth incubated for 72 hrs by MTT assay; type: functional, cell-based; conditions: NCI-H1299, 72 h
[24] = tested on: BT-474; experiment: Antiproliferative activity against human BT474 cells assessed as reduction in cell growth incubated for 72 hrs by MTT assay; type: functional, cell-based; conditions: BT-474, 72 h
[25] = tested on: SK-OV-3; experiment: Antiproliferative activity against human SKOV3 cells assessed as reduction in cell growth incubated for 72 hrs by MTT assay; type: functional, cell-based; conditions: SK-OV-3, 72 h

Row | EC50 [5] | EC50 [12] | EC50 [16] | SMILES | growth at 10 µM [2] | growth at 10 µM [3] | EC50 [4] | growth at 10 µM [7] | growth at 10 µM [9] | growth at 10 µM [10] | growth at 10 µM [13] | growth at 10 µM [15] | growth at 10 µM [19] | viability at 72 h, 10 µM [20] | growth at 10 µM [21] | other results
1 | 310 nM | 230 nM | 100 nM | COc1ccc(C2CC(c3ccc4ccccc4c3)=NN2C2=NC(=O)/C(=C3/C(=O)Nc4ccc(C)cc43)S2)cc1 (configuration not stated) | 5.02% | 66.6% | 140 nM | 19.3% | 0.46% | 4.81% | 14.2% | 6.21% | 10.8% | 11.8% | 40.2% | EC50 [1]: 150 nM; Activity [6]: <1%; Activity [8]: 13.5 - 27%; Activity [11]: 13.5 - 27%; Activity [14]: <1%; Activity [17]: 13.5 - 27%; EC50 [18]: 180 nM; Activity [22]: <1%
2 |  |  |  | COc1ccc(C2CC(c3cccs3)=NN2C2=NC(=O)/C(=C3/C(=O)Nc4c(Br)cccc43)S2)cc1 (configuration not stated) | 53.7% | 88% |  | 89.2% | 101% | 126% | 57% | 86.1% | 73.9% | 46.3% | 94.3% | 
3 |  |  |  | COc1ccc(C2CC(c3cccs3)=NN2C2=NC(=O)/C(=C3/C(=O)Nc4ccc(C)cc43)S2)cc1 (configuration not stated) | 62.4% | 38.4% |  | 84% | 1.37% | 112% | 12.1% | 22.7% | 76.9% | 48.3% | 95% | 
4 |  |  |  | COc1ccc(C2CC(c3cccs3)=NN2C2=NC(=O)/C(=C3/C(=O)Nc4c(C)cc(C)cc43)S2)cc1 (configuration not stated) | 72.3% | 79.9% |  | 120% | 117% | 114% | 126% | 104% | 111% | 80.3% | 103% | 
5 |  |  |  | COc1ccc(C2CC(c3cccs3)=NN2C2=NC(=O)/C(=C3/C(=O)Nc4ccc(F)cc43)S2)cc1 (configuration not stated) | 77.2% | 94.1% |  | 68.3% | 28.1% | 112% | 14.4% | 63.6% | 81.5% | 20% | 102% | 
6 |  | 5760 nM |  | COc1ccc(C2CC(c3cccs3)=NN2C2=NC(=O)/C(=C3/C(=O)Nc4ccc(Cl)cc43)S2)cc1 (configuration not stated) | 59.6% | 56.6% | 2970 nM | 117% | 0.9% | 112% | 4.35% | 22.4% | 80.4% | 47.5% | 86.8% | 
7 |  |  |  | COc1ccc(C2CC(c3ccc4ccccc4c3)=NN2C2=NC(=O)/C(=C3/C(=O)Nc4c(Br)cccc43)S2)cc1 (configuration not stated) | 55.3% | 89.9% |  | 81% | 98.6% | 102% | 96.7% | 94.2% | 68.2% | 47.3% | 88.2% | 
8 |  |  |  | COc1ccc(C2CC(c3ccc4ccccc4c3)=NN2C2=NC(=O)/C(=C3/C(=O)Nc4c(C)cc(C)cc43)S2)cc1 (configuration not stated) | 44.9% | 26.6% |  | 87.8% | 63.4% | 120% | 64.2% | 43.8% | 73% | 55.6% | 62.2% | 
9 | 270 nM | 670 nM | 100 nM | COc1ccc(C2CC(c3ccc4ccccc4c3)=NN2C2=NC(=O)/C(=C3/C(=O)Nc4ccc(OC)cc43)S2)cc1 (configuration not stated) | 5.13% | 41.4% | 500 nM | 9.85% | 1.2% | 3.64% | 1.13% | 3.93% | 9.67% | 13.3% | 49.1% | EC50 [1]: 270 nM; EC50 [23]: 150 nM; EC50 [24]: 240 nM; EC50 [18]: 730 nM
10 |  |  |  | COc1ccc(C2CC(c3ccc4ccccc4c3)=NN2C2=NC(=O)/C(=C3/C(=O)Nc4c(F)cccc43)S2)cc1 (configuration not stated) | 73.1% | 67.7% |  | 60.5% | 109% | 118% | 86.2% | 86.5% | 87.3% | 89.4% | 112% | 
11 | 70 nM | 380 nM | 60 nM | COc1ccc(C2CC(c3ccc4ccccc4c3)=NN2C2=NC(=O)/C(=C3/C(=O)Nc4ccc(Cl)cc43)S2)cc1 (configuration not stated) | 5.62% | 6.69% | 330 nM | 9.76% | 1.3% | 3.81% | 1.59% | 3.84% | 6.87% | 14.4% | 24.2% | Activity [6]: <1%; Activity [8]: 13.5 - 27%; EC50 [23]: 10 nM; EC50 [24]: 90 nM; Activity [11]: 13.5 - 27%; Activity [14]: <1%; Activity [17]: 13.5 - 27%; EC50 [18]: 340 nM; Activity [22]: <1%; EC50 [25]: 60 nM
12 |  |  |  | COc1ccc(C2CC(c3cccs3)=NN2C2=NC(=O)/C(=C3/C(=O)Nc4ccc(OC)cc43)S2)cc1 (configuration not stated) | 67.6% | 49.5% |  | 85.9% | 98.6% | 120% | 44.9% | 62.5% | 99.3% | 64.4% | 98.4% | 
13 | 960 nM |  | 2500 nM | CCN(CC)CCNC(=O)c1c(C)[nH]c(/C=C2\C(=O)Nc3ccc(F)cc32)c1C [SUNITINIB] |  |  |  |  |  |  |  |  |  |  |  | EC50 [1]: 300 nM; EC50 [23]: 1540 nM; EC50 [24]: 900 nM; EC50 [25]: 1360 nM
